Patent US20230391763A1, “MODULATORS OF THE INTEGRATED STRESS RESPONSE PATHWAY” (Evotec International GmbH, priority 2020, published 2023)

System: Tunicamycin induced ISR (ATF4 signal ratio between nucleus and cytoplasm) in wild-type HEK293 cells
Experiment: HEK-ATF4 High Content Imaging assay
Assay type: cell-based
Conditions: Homo sapiens, prevention of Tunicamycin induced ISR, 6 h incubation, ATF4 immunofluorescence nucleus/cytoplasm ratio
Experimental: HEK-ATF4 High Content Imaging Assay
Example compounds were tested in the HEK-ATF4 High Content Imaging assay to assess their pharmacological potency to prevent Tunicamycin induced ISR. Wild-type HEK293 cells were plated in 384-well imaging assay plates at a density of 12,000 cells per well in growth medium (containing DMEM/F12, 10% FBS, 2 mM L-Glutamine, 100 U/mL Penicillin—100 μg/mL Streptomycin) and incubated at 37° C., 5% CO2. 24 h later, the medium was changed to 50 μL assay medium per well (DMEM/F12, 0.3% FBS, 2 mM L-Glutamine, 100 U/mL Penicillin—100 μg/mL Streptomycin). Example compounds were serially diluted in DMSO, spotted into intermediate plates and prediluted with assay medium containing 3.3 μM Tunicamycin to give an 11-fold excess of final assay concentration. In addition to the example compound testing area, the plates also contained multiples of control wells for assay normalization purposes, wells containing Tunicamycin but no example compounds (High control), as well as wells containing neither example compound nor Tunicamycin (Low control). The assay was started by transferring 5 μL from the intermediate plate into the assay plates, followed by incubation for 6 h at 37° C., 5% CO2. Subsequently, cells were fixed (4% PFA in PBS, 20 min at r.t.) and submitted to indirect ATF4 immunofluorescence staining (primary antibody rabbit anti ATF4, clone D4B8, Cell Signaling Technologies; secondary antibody Alexa Fluor 488 goat anti-rabbit IgG (H+L), Thermofisher Scientific). Nuclei were stained using Hoechst dye (Thermofisher Scientific), and plates were imaged on an Opera Phenix High Content imaging platform equipped with 405 nm and 488 nm excitation. Finally, images were analyzed using script based algorithms. The main readout HEK-ATF4 monitored the ATF4 signal ratio between nucleus and cytoplasm. Tunicamycin induced an increase in the overall ATF4 ratio signal, which was prevented by ISR modulating example compounds. In addition, HEK-CellCount readout was derived from counting the number of stained nuclei corresponding to healthy cells. This readout served as an internal toxicity control.

Compound | IC50 [nM]
O=C(N[C@H]1CC[C@H](c2nnc(OCCOC(F)(F)F)o2)NC1)C1=Cc2ccc(Cl)cc2OC1 [Example 4, 7-chloro-N-[(3S,6R)-6-{5-[2-(trifluoromethoxy)ethoxy]-1,3,4-oxadiazol-2-yl}piperidin-3-yl]-2H-chromene-3-carboxamide] | 1 to 500
Cn1c(C(=O)N[C@H]2CC[C@H](c3nnc(OCCOC(F)(F)F)o3)NC2)cc2cc(C(F)(F)F)ccc21 [Example 22, 1-methyl-N-[(3S,6R)-6-{5-[2-(trifluoromethoxy)ethoxy]-1,3,4-oxadiazol-2-yl}piperidin-3-yl]-5-(trifluoromethyl)-1H-indole-2-carboxamide] | 500 to 2000
O=C(N[C@H]1CC[C@H](c2nnc(OCCOC(F)(F)F)o2)NC1)c1ccc2cc(Cl)cnc2c1 [Example 10, 3-chloro-N-[(3S,6R)-6-{5-[2-(trifluoromethoxy)ethoxy]-1,3,4-oxadiazol-2-yl}piperidin-3-yl]quinoline-7-carboxamide] | 500 to 2000
O=C(N[C@H]1CC[C@H](c2nnc(-c3ccc(Cl)cc3)o2)NC1)c1cnc2cc(Cl)ccc2c1 [Example 46, 7-chloro-N-[(3S,6R)-6-[5-(4-chlorophenyl)-1,3,4-oxadiazol-2-yl]-3-piperidyl]quinoline-3-carboxamide] | 1 to 500
O=C(N[C@H]1CC[C@H](c2nnc(OCCOC(F)(F)F)o2)NC1)c1ccc2nc(C(F)(F)F)ccc2c1 [Example 14, N-[(3S,6R)-6-{5-[2-(trifluoromethoxy)ethoxy]-1,3,4-oxadiazol-2-yl}piperidin-3-yl]-2-(trifluoromethyl)quinoline-6-carboxamide] | 2000 to 15000
O=C(N[C@H]1CC[C@H](c2nnc(OCCOC(F)(F)F)o2)NC1)c1ccc(OC(F)(F)F)c(Cl)c1 [Example 34, 3-chloro-4-(trifluoromethoxy)-N-[(3S,6R)-6-{5-[2-(trifluoromethoxy)ethoxy]-1,3,4-oxadiazol-2-yl}piperidin-3-yl]benzamide] | 500 to 2000
O=C(N[C@H]1CO[C@H](c2nnc(OCCOC(F)(F)F)o2)OC1)c1cnc2cc(Cl)ccc2c1 [Example 55, 7-chloro-N-[trans-2-{5-[2-(trifluoromethoxy)ethoxy]-1,3,4-oxadiazol-2-yl}-1,3-dioxan-5-yl]quinoline-3-carboxamide] | 1 to 500
O=C(N[C@@H]1CC[C@@H](c2nnc(OCCOC(F)(F)F)o2)NC1)c1ccc(Cl)c(Cl)c1 [Example 54, 3,4-dichloro-N-[(3R,6S)-6-[5-[2-(trifluoromethoxy)ethoxy]-1,3,4-oxadiazol-2-yl]-3-piperidyl]benzamide] | 500 to 2000
O=C(N[C@@H]1CC[C@@H](c2nnc([C@H]3C[C@@H](OC(F)(F)F)C3)o2)NC1)c1cnc2cc(Cl)ccc2c1 [Example 52, 7-chloro-N-[(3R,6S)-6-{5-[(1s,3s)-3-(trifluoromethoxy)cyclobutyl]-1,3,4-oxadiazol-2-yl}piperidin-3-yl]quinoline-3-carboxamide] | 1 to 500
O=C(N[C@H]1CC[C@H](c2nnc(OCCOC(F)(F)F)o2)NC1)c1cnc2cc(Cl)c(F)cc2c1 [Example 11, 7-chloro-6-fluoro-N-[(3S,6R)-6-{5-[2-(trifluoromethoxy)ethoxy]-1,3,4-oxadiazol-2-yl}piperidin-3-yl]quinoline-3-carboxamide] | 1 to 500
Cn1c(C(=O)N[C@H]2CC[C@H](c3nnc(OCCOC(F)(F)F)o3)NC2)cc2ccc(C(F)(F)F)cc21 [Example 42, 1-methyl-N-[(3S,6R)-6-[5-[2-(trifluoromethoxy)ethoxy]-1,3,4-oxadiazol-2-yl]-3-piperidyl]-6-(trifluoromethyl)indole-2-carboxamide] | 500 to 2000
O=C(N[C@H]1CC[C@H](c2nnc(OCCOC(F)(F)F)o2)NC1)c1ccc2c(c1)OC(F)(F)O2 [Example 30, 2,2-difluoro-N-[(3S,6R)-6-{5-[2-(trifluoromethoxy)ethoxy]-1,3,4-oxadiazol-2-yl}piperidin-3-yl]-2H-1,3-benzodioxole-5-carboxamide] | 500 to 2000
Cc1ccc(C(=O)N[C@H]2CC[C@H](c3nnc(OCCOC(F)(F)F)o3)NC2)cc1C [Example 25, 3,4-dimethyl-N-[(3S,6R)-6-{5-[2-(trifluoromethoxy)ethoxy]-1,3,4-oxadiazol-2-yl}piperidin-3-yl]benzamide] | 2000 to 15000
O=C(N[C@H]1CC[C@H](c2nnc(OCCOC(F)(F)F)o2)NC1)c1cc(Cl)c(Cl)cn1 [Example 38, 4,5-dichloro-N-[(3S,6R)-6-{5-[2-(trifluoromethoxy)ethoxy]-1,3,4-oxadiazol-2-yl}piperidin-3-yl]pyridine-2-carboxamide] | 2000 to 15000
Cc1ccc(C(=O)N[C@H]2CC[C@H](c3nnc(OCCOC(F)(F)F)o3)NC2)cc1 [Example 27, 4-methyl-N-[(3S,6R)-6-{5-[2-(trifluoromethoxy)ethoxy]-1,3,4-oxadiazol-2-yl}piperidin-3-yl]benzamide] | 2000 to 15000
O=C(N[C@H]1CC[C@H](c2nnc(OCCOC(F)(F)F)o2)NC1)c1cc(F)c(Cl)c(F)c1 [Example 32, 4-chloro-3,5-difluoro-N-[(3S,6R)-6-{5-[2-(trifluoromethoxy)ethoxy]-1,3,4-oxadiazol-2-yl}piperidin-3-yl]benzamide] | 2000 to 15000
O=C(N[C@H]1CC[C@H](c2nnc(OCCOC(F)(F)F)o2)NC1)c1cnc2ccc(Cl)cc2c1 [Example 8, 6-chloro-N-[(3S,6R)-6-{5-[2-(trifluoromethoxy)ethoxy]-1,3,4-oxadiazol-2-yl}piperidin-3-yl]quinoline-3-carboxamide] | 1 to 500
O=C(N[C@H]1CC[C@H](c2nnc(OCCOC(F)(F)F)o2)NC1)c1ccc(OC(F)(F)F)cc1 [Example 29, 4-(trifluoromethoxy)-N-[(3S,6R)-6-{5-[2-(trifluoromethoxy)ethoxy]-1,3,4-oxadiazol-2-yl}piperidin-3-yl]benzamide] | 1 to 500
